This note sets out measurements from patent publication US11667638B2, “4-substitued cytisine analogues” (The University of Bristol, priority 2016, dated 2023).

Where two headings read alike, the source gives them in different places.

One assay addresses α3β4 nAChRs (Homo sapiens (Human), UniProt P30926+P32297). The assay is described as follows: Maximal gating efficacy on α3β4 nAChRs in Xenopus oocytes, two electrode voltage clamp. The conditions noted are these: maximal current relative to 1 mM ACh. It counts as cell-based. As for the experimental part:
(§1) Compounds of the invention were tested for effects on the function of human α4β2, α3β4 and α7 nicotinic acetylcholine receptors (nAChRs) expressed heterologously in Xenopus oocytes. […] Expression in oocytes was obtained as follows: pCI (Promega, UK) plasmid containing human α4, β2, β4 or α7 complementary DNA were injected as previously described (Moroni et al., 2006). To express (α4)3(β2)2 nACh receptors, a mixture of 10α4:1β2 cDNAs was injected into the nucleus of oocytes, whereas for (α4)2(β2)3 receptors the cDNA ratio injected was 1α4:10β2.
(§2) Functional studies: Recordings were performed manually using a Geneclamp amplifier (Molecular Devices, USA) or using an automated HiClamp system. In both cases the oocytes were impaled with two electrodes filled with 3 M KCl and the cells were held at −60 mV throughout the experiments.
(§3) Oocyte isolation and two-electrode voltage-clamp recordings on oocytes were carried out as previously described (Moroni et al., 2006; Carbone et al., 2009). […] A minimum interval of 5 min was allowed between agonist applications to ensure reproducible recordings. Oocytes were exposed to increasing concentrations of the compounds until no further increases in the response amplitude were obtained. This concentration was taken as the concentration that causes maximal responses on the receptors tested. The data summarised in Tables 1-4 were obtained from at least 5 experiments carried out on oocytes obtained from at least three different donors.
Maximal gating efficacy of the compounds on α3β4 nAChRs: The concentration of the compounds causing maximal activation of α3β4 nAChRs expressed heterologously in Xenopus oocytes was determined using two electrode voltage clamping.
(In general: In two-electrode clamp one electrode senses voltage and the other passes current.)

The target of the next assay is (α4)3(β2)2 nAChRs (Homo sapiens (Human), UniProt P17787+P43681). In words: Maximal gating efficacy on (α4)3(β2)2 nAChRs in Xenopus oocytes, two electrode voltage clamp. It counts as cell-based. The protocol:
as §1, §2, §3
Maximal gating efficacy of the compounds: The concentration of the compounds of the invention causing maximal activation of the (α4)3(β2)2 nAChRs expressed heterologously in Xenopus oocytes was determined using two electrode voltage clamping.

In a further assay the target is (α4)2(β2)3 nAChRs (Homo sapiens (Human), UniProt P17787+P43681). The assay is described as follows: Maximal gating efficacy on (α4)2(β2)3 nAChRs in Xenopus oocytes, two electrode voltage clamp. It counts as cell-based. The protocol:
as §1, §2, §3
Maximal gating efficacy of compounds on (α4)2(β2)3 receptors (high sensitivity receptors): The concentration of the compounds causing maximal activation of the (α4)2(β2)3 nAChRs expressed heterologously in Xenopus oocytes was determined using two electrode voltage clamping.

For another assay, the target named is α4β2 nAChR (Homo sapiens (Human), UniProt P17787+P43681). Format: binding. The note with it: ratio of Ki values. As for the experimental part: HEK 293 cells were grown in Dulbecco's modified Eagle medium supplemented with 10% fetal bovine serum, 1% L-Glutamine, 100 units/ml penicillin G, and 100 μg/streptomycin in a humidified atmosphere containing 10% CO2. The cDNAs encoding α3 and β4 or α4 and β2 (were transfected into the HEK 293 cells at 30% confluency). The cell transfections were carried out in 100 mm Petri dishes using 30 μL of JetPEI™ (Polypus, France) (1 mg/ml, pH 7.2) and 3 μg of each cDNA. After 24 h transfection, the cells were collected, washed with PBS by centrifugation, and used for binding analysis.
[^3H]-epibatidine saturation binding experiments to HEK transfected α3β4 or α4β2 receptors were performed by means of overnight incubation at 4° C. at concentrations ranging from 0.005 to 1 nM in a buffer containing 50 mM Tris-HCl, pH 7, 150 mM NaCl, 5 mM KCl, 1 mM MgCl2, 2.5 mM CaCl2 and 2 mg/ml BSA, in the presence (aspecific binding) or absence (total binding) of 100 nM cold epibatidine. Specific ligand binding was defined as total binding minus the binding in the presence of 100 nM cold epibatidine.
After incubation, the membranes of HEK cells transfected with α4β2* or α3β4 subtypes were washed by filtration on GFC filters with ice-cold PBS. The GFC filters were pre-soaked in polyethylenimine and filtered through an harvester apparatus. [^3H]-epibatidine binding was determined by means of liquid scintillation counting in a beta counter.
The ligand binding data were analyzed by means of nonlinear regression using Prism version 5 (GraphPad Software, Inc., La Jolla, Calif.). The Ki values were calculated from the experimental IC50 values using the Cheng-Prusoff equation for a single population of competitive sites: Ki=IC50/[1+(L/Kd)], where L is the concentration of radioligand used in each experiment and the Kd values were determined by saturation binding experiment. All of the assays were performed in duplicate and repeated at least two-three times.

The next assay deals with α7 nAChRs (Homo sapiens (Human), UniProt P36544). It counts as cell-based. The conditions noted are these: compounds at 100 μM, relative to 1 mM ACh. The protocol: as §1, §2, §3
Where [1] appears, read: (α4)3(β2)2, low sensitivity stoichiometry, maximal current relative to 1 mM ACh.
[2] abbreviates: (α4)2(β2)3, high sensitivity receptors, maximal current relative to 1 mM ACh.

Chain of α3β4 nAChRs (P32297 32-505): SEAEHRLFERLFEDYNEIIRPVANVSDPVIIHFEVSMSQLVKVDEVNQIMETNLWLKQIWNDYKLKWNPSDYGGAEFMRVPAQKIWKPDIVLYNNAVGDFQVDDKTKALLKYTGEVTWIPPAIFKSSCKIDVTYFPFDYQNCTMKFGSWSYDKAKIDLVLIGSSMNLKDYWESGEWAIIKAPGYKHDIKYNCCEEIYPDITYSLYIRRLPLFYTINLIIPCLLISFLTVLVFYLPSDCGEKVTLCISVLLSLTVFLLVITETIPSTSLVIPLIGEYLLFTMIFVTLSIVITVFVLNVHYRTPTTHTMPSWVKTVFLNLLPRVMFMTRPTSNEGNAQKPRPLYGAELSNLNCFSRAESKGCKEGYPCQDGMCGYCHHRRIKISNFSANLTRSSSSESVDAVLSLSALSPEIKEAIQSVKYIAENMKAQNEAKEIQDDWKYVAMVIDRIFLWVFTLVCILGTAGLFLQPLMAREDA
Chain of α3β4 nAChRs (P30926 22-498): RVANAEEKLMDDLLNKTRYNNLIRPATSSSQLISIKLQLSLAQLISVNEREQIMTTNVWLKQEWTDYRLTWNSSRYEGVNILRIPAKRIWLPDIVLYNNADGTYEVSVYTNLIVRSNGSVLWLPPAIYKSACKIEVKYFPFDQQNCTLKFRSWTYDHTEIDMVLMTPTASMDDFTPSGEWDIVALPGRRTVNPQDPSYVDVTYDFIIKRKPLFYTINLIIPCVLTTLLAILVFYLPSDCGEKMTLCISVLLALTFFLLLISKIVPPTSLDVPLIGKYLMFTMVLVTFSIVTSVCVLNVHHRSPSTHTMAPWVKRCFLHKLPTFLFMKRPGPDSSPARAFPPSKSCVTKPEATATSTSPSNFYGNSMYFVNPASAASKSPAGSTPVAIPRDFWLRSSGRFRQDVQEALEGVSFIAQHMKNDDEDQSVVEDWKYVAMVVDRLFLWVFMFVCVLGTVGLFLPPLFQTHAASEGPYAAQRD
Chain of α7 nAChRs (P36544 23-502): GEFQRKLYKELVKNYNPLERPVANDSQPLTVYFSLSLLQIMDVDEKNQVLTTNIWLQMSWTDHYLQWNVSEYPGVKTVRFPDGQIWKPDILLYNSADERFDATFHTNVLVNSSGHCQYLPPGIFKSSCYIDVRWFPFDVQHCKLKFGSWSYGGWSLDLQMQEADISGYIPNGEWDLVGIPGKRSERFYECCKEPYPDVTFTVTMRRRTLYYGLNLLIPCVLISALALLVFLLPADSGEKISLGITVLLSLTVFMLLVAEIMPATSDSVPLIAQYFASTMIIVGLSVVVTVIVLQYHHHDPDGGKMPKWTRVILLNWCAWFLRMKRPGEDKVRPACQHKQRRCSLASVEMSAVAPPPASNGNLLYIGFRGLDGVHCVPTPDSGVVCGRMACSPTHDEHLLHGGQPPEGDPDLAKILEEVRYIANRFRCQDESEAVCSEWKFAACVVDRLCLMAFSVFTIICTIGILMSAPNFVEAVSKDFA
Chain of α4β2 nAChR (P43681 29-627 limits assumed): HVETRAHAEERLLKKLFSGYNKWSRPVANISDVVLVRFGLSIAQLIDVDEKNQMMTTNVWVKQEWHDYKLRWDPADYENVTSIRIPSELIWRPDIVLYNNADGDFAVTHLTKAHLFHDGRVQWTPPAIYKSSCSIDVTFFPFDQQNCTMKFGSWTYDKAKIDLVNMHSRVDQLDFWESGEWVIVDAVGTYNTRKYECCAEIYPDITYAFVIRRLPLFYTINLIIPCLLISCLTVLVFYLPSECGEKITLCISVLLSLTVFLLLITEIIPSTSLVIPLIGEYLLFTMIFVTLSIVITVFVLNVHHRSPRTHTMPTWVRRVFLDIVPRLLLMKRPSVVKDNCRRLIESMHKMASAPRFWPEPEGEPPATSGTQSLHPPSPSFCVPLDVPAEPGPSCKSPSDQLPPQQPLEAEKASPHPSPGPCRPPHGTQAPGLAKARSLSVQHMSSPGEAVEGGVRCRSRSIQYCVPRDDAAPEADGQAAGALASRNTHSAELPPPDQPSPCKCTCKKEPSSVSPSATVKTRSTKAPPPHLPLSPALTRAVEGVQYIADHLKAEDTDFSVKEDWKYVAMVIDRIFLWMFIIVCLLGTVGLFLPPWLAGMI
Chain of α4β2 nAChR (P17787 26-502 limits assumed): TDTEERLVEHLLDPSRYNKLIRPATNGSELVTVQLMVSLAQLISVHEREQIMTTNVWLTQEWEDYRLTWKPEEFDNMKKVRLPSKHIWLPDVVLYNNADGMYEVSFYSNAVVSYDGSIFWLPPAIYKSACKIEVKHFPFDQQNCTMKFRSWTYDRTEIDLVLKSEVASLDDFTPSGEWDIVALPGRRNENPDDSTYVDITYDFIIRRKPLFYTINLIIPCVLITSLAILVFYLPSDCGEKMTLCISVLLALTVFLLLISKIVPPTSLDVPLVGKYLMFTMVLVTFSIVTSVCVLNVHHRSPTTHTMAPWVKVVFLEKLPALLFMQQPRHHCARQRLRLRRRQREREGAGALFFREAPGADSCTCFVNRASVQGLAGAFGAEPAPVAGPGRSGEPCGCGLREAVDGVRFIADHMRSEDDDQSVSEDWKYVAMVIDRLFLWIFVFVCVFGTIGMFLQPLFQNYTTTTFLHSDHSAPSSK
Chain of (α4)3(β2)2 nAChRs (P43681 29-627): as the sequence (P43681 29-627 limits assumed) above
Chain of (α4)3(β2)2 nAChRs (P17787 26-502): as the sequence (P17787 26-502 limits assumed) above
Chain of (α4)2(β2)3 nAChRs (P43681 29-627): as the sequence (P43681 29-627 limits assumed) above
Chain of (α4)2(β2)3 nAChRs (P17787 26-502): as the sequence (P17787 26-502 limits assumed) above

For `CCNc1cc2n(c(=O)c1)CC1CNCC2C1` (single isomer, unassigned; (+)) [Compound 87, (+)4-(N-ethylamino)cytisine], the “Relative efficacy (ACh)” value at α3β4 nAChRs was 0.010 ± 0.009; at (α4)3(β2)2 nAChRs (setting [1]) it was 0.011 ± 0.001; at (α4)2(β2)3 nAChRs (setting [2]), 0.023 ± 0.032. The “Ratio α3β4/α4β2” value at α4β2 nAChR was found to be 835.2.

Turning to `c1cnc2cc3c(cc2n1)[C@@H]1CNC[C@H]3C1` [Varenicline, reference compound], the “Relative efficacy (ACh)” value on α3β4 nAChRs was found to be 0.51 ± 0.09; on α7 nAChRs it was 0.96 ± 0.03; at (α4)3(β2)2 nAChRs (setting [1]), 0.40 ± 0.09; on (α4)2(β2)3 nAChRs (setting [2]), 0.14 ± 0.03.

As to `CNCc1cc2n(c(=O)c1)CC1CNC[C@@H]2C1` (single isomer, unassigned; (-)) [Compound 152, (−)4-((N-methyl)aminomethyl)cytisine], the “Relative efficacy (ACh)” value at (α4)3(β2)2 nAChRs (setting [1]) is 0.031 ± 0.043. Moreover, the “Ratio α3β4/α4β2” value on α4β2 nAChR worked out at 807.0.

For the compound `COC(=O)c1cc2n(c(=O)c1)CC1CNC[C@@H]2C1` (single isomer, unassigned; (-)) [Compound 119, (−)4-carboxymethycytisine], the figures for the “Relative efficacy (ACh)” value on α3β4 nAChRs, on (α4)3(β2)2 nAChRs (setting [1]) and on (α4)2(β2)3 nAChRs (setting [2]) were 0.040 ± 0.049, 0.021 ± 0.007 and 0.0065 ± 0.0005, respectively. For the same compound, on α4β2 nAChR, the “Ratio α3β4/α4β2” value is 366.5.

On to `N#Cc1cc2n(c(=O)c1)CC1CNC[C@@H]2C1` (single isomer, unassigned; (-)) [Compound 140, (−)4-Cyanocytisine], for which the “Relative efficacy (ACh)” value on α3β4 nAChRs came to 0.172 ± 0.064; on (α4)3(β2)2 nAChRs (setting [1]), 0.050 ± 0.027; at (α4)2(β2)3 nAChRs (setting [2]), 0.026 ± 0.036. Also, the “Ratio α3β4/α4β2” value on α4β2 nAChR is 199.5.

Consider `CCc1cc2n(c(=O)c1Br)CC1CNCC2C1` (single isomer, unassigned; (-)) [BS74, (−)-(3-bromo-4-ethyl)cytisine], for which the “Relative efficacy (ACh)” value turned out to be 1.75 ± 0.56 at α3β4 nAChRs, 0.126 ± 0.067 at (α4)3(β2)2 nAChRs (setting [1]) and 0.121 ± 0.171 on (α4)2(β2)3 nAChRs (setting [2]).

As to `Nc1cc2n(c(=O)c1)CC1CNC[C@@H]2C1` (single isomer, unassigned; (+)) [Compound 81, (+)4-aminocytisine], the figures for the “Relative efficacy (ACh)” value at α3β4 nAChRs, at (α4)3(β2)2 nAChRs (setting [1]) and on (α4)2(β2)3 nAChRs (setting [2]) were 0.0210 ± 0.008, 0.007 ± 0.01061 and 0.024 ± 0.034, respectively. Besides, the “Ratio α3β4/α4β2” value at α4β2 nAChR stood at 1561.0.

For the compound `CN(Cc1cc2n(c(=O)c1)CC1CNC[C@@H]2C1)Cc1cc2n(c(=O)c1)CC1CNC[C@@H]2C1` (stereo in doubt) [Compound 156, Methylamino bis(cytisine) derivative], the figures for the “Relative efficacy (ACh)” value at α3β4 nAChRs, on (α4)3(β2)2 nAChRs (setting [1]) and at (α4)2(β2)3 nAChRs (setting [2]) were 0.012 ± 0.007, 0.052 ± 0.007 and “No response”, respectively. At α4β2 nAChR, the “Ratio α3β4/α4β2” value worked out at 207.3.

For `CNc1cc2n(c(=O)c1Br)CC1CNC[C@@H]2C1` (single isomer, unassigned; (+)) [Compound 158, (+)3-Bromo-4-N-methylaminocytisine], the “Relative efficacy (ACh)” value on α3β4 nAChRs is listed as 0.057 ± 0.016; at (α4)3(β2)2 nAChRs (setting [1]), 0.049 ± 0.012; at (α4)2(β2)3 nAChRs (setting [2]) it was 0.038 ± 0.054. For the same compound, on α4β2 nAChR, the “Ratio α3β4/α4β2” value turned out to be 106.9.

In the case of `O=c1cc(O)cc2n1CC1CNC[C@@H]2C1` (single isomer, unassigned; (+)) [Compound 67, (+)4-Hydroxycytisine], the “Relative efficacy (ACh)” value on α3β4 nAChRs is 0.047 ± 0.036; on α7 nAChRs, “No response at 100 μM”; on (α4)3(β2)2 nAChRs (setting [1]) it was 0.07 ± 0.009; at (α4)2(β2)3 nAChRs (setting [2]) it was 0.005 ± 0.0001. For the same compound, the “Ratio α3β4/α4β2” value at α4β2 nAChR is reported as 397.8.

`Cc1ccc(-c2cc3n(c(=O)c2)CC2CNC[C@@H]3C2)cc1` (single isomer, unassigned; (+)) [Compound 73, (+)4-p-Tolylcytisine]: the “Relative efficacy (ACh)” value on α3β4 nAChRs is on record as 0.076 ± 0.093; on α7 nAChRs it was 0.0027 ± 0.0021; on (α4)3(β2)2 nAChRs, 0.017 ± 0.019; on (α4)2(β2)3 nAChRs it was 0.030 ± 0.013. Further, the “Ratio α3β4/α4β2” value at α4β2 nAChR amounted to 161.7.

Consider `CC(=O)Nc1cc2n(c(=O)c1)CC1CNC[C@@H]2C1.Cl` (single isomer, unassigned; (+)) [Compound 94, (+)4-(N-acetylamino)cytisine], for which the “Relative efficacy (ACh)” value at α3β4 nAChRs was 0.055 ± 0.047; at α7 nAChRs, 0.0001 ± 0.00001; on (α4)3(β2)2 nAChRs (setting [1]) it was 0.153 ± 0.006; on (α4)2(β2)3 nAChRs (setting [2]), 0.001 ± 0.0006. Moreover, at α4β2 nAChR, the “Ratio α3β4/α4β2” value came to 751.0.

Regarding `CC(=O)NCc1cc2n(c(=O)c1)CC1CNC[C@@H]2C1.Cl` (single isomer, unassigned; (-)) [Compound 148], the “Relative efficacy (ACh)” value on α3β4 nAChRs is on record as 0.034 ± 0.038; at (α4)3(β2)2 nAChRs (setting [1]), 0.041 ± 0.057; on (α4)2(β2)3 nAChRs (setting [2]), 0.015 ± 0.021. The “Ratio α3β4/α4β2” value at α4β2 nAChR was found to be 204.8.

On to `Cl.O=c1c(C(F)(F)F)c(Br)cc2n1CC1CNC[C@@H]2C1` (single isomer, unassigned; (-)) [Compound 162, (−)3-(Trifluoromethyl)-4-bromocytisine], for which the results for the “Relative efficacy (ACh)” value at α3β4 nAChRs, on (α4)3(β2)2 nAChRs (setting [1]) and at (α4)2(β2)3 nAChRs (setting [2]) were 0.250 ± 0.077, 0.072 ± 0.026 and 0.042 ± 0.060, respectively. The “Ratio α3β4/α4β2” value on α4β2 nAChR is 136.4.

Consider `O=c1c(Br)c(O)cc2n1CC1CNCC2C1` (single isomer, unassigned; (-)) [BS70, (−)-(3-bromo-4-hydroxy)cytisine], for which the results for the “Relative efficacy (ACh)” value on α3β4 nAChRs and at (α4)3(β2)2 nAChRs (setting [1]) were 0.108 ± 0.149 and 0.114 ± 0.113, respectively.

In the case of `CNc1cc2n(c(=O)c1)CC1CNC[C@@H]2C1` (single isomer, unassigned; (+)) [Compound 84, (+)4-(N-Methylamino)cytisine], the entries for the “Relative efficacy (ACh)” value on α3β4 nAChRs, on (α4)3(β2)2 nAChRs (setting [1]) and on (α4)2(β2)3 nAChRs (setting [2]) were 0.0233 ± 0.005, 0.048 ± 0.040 and 0.042 ± 0.059, respectively. Also, the “Ratio α3β4/α4β2” value on α4β2 nAChR was 2546.3.

For `Cl.NC(=O)c1cc2n(c(=O)c1)CC1CNC[C@@H]2C1` (single isomer, unassigned; (-)) [Compound 142, (−)4-(carboxyamido)cytisine], on α4β2 nAChR, the “Ratio α3β4/α4β2” value was 36.2.

Turning to `CC(=O)OCC[N+](C)(C)C` [ACh, reference compound], the “Relative efficacy (ACh)” value was 1.0 at α3β4 nAChRs, 1 on (α4)3(β2)2 nAChRs (setting [1]) and 1.0 on (α4)2(β2)3 nAChRs (setting [2]).

Take `Nc1cc2n(c(=O)c1Br)CC1CNCC2C1` (single isomer, unassigned; (+)) [BS71, (+)-(3-bromo-4-amino)cytisine]: the “Relative efficacy (ACh)” value is listed as 0.632 ± 0.067 at α3β4 nAChRs and 0.152 ± 0.1223 at (α4)3(β2)2 nAChRs (setting [1]).
